Results on two compounds are retold here after US20040191907A1, “Cultured cells of Ficus stipulata Thunb. (=Ficus thunbergii) and a method for culturing tissues of the Ficus stipulata Thunb. by using said cultured cells” (HIROSHIMA UNIVERSITY, priority 2001, published 2004).

In experiment [1] the test system is cut pieces of the leaf, shoot and root tissues of the Ficus stipulata Thunb. The experiment in a line: Experiment 1: polyblast formation from cut pieces cultured on medium containing thidiazuron and/or benzyladenine. The experiment is classed as cell-based. The conditions noted are these: for Number of cut piece* (cut pieces with polyblast formation × 100/cut piece) / Number of shoots/cut piece: one month after the culturing; for induction of the Ficus stipulata Thunb. (polyblast formation / redifferentiation): culture medium containing at least one of TDZ and/or BA. The protocol: A culture medium in which the MS culture medium or the WP culture medium was used as a fundamental culture medium and 1% sucrose and 0.3% Gellan Gum were added as the carbonaceuous source and a gelling agent, respectively, was used.
Cut pieces, 0.5˜1 mm long, were prepared from leaf, shoot and root tissues of the Ficus stipulata Thunb. asepatically cultured. The cut pieces of the leaf, shoot and root tissues of the Ficus stipulata Thunb. thus prepared were implanted on a culture medium containing thidiazuron and/or benzyladenine as plant hormones, thereby culturing the Ficus stipulata Thunb. One month after the culturing, it was observed that polyblasts were formed from the cut pieces. The polyblasts were cut out, their cut edge were coated with iondoleacetic acid, and the polyblasts were implanted into the above culture medium or a culture containing pearlite and vermiculite, and allowed to take roots.

In experiment [2] the test system is cut pieces from stem apexes, nodes and stem portions of Ficus stipulata Thunb. The experiment can be described thus: Experiment 2: redifferentiation condition, polyblasts and buds formed at stem apex cut pieces. The experiment is classed as cell-based. The conditions noted are these: for Number of cut pieces* in which polyflasts were formed at a stem apex: of 4 cut pieces; for Number of cut pieces* in which polyflasts were formed at a stem apex / Number of buds formed: six weeks; for Number of buds formed: stem apex; for redifferential state: used as the plant hormone, bright condition, WP culture medium. The protocol:
A redifferentiation condition most suitable for the introduction of a gene into the Ficus stipulata Thunb. was examined, and the gene was tried introduced thereinto.
First, the redifferentiation condition was examined. As the Ficus stipulata Thunb., one sterilized and aseptically subcultured was used. The Ficus stipulata Thunb. aseptically grown (4 to 6 weeks after implanting the cutting) used, and cut pieces were prepared from stem apexes, nodes and stem portions, and implanted in the culture medium. Six weeks later, the number and the shape of buds were observed. In culturing the Ficus stipulata Thunb., 1/3 of a block of Florialite (a mixture of vermiculite and cellulose fibers) was added into a test tube (30×200 mm), to which 15 ml of the MS culture medium or the WP culture medium was added. The test tube was closed with a polypropylene cap, which was placed in an autoclave.
A braird appearing in the Ficus stipulata Thunb. having been aseptically subcultured in an Agripot (a plastic container) was cut by about 2 to 3 cm, its cut section was immersed into a 1 g/l solution (1 g/l) of 4-(3-indolyl)butyric acid, and the cut piece was implanted in the test piece thus prepared, and subjected to 4 to 8 week culturing.
The culturing conditions were: atmospheric temperature 25° C., illumination intensity 30˜40 μEm^−2s^−1, a bright condition of 30˜40μEm^−2s^−1 for 15 hours and a dark condition of 1˜2μEm^−2s^−1 for 9 hours.
The MS culture medium or the WP culture medium was used as a fundamental culture medium. Sucrose 2% was added into each of the culture media, thereby adjusting the pH values of the MS culture medium and the WP culture medium to 5.6 and 5.2, respectively. Further, Gellan Gum 3% was added to the culture medium, and it was autoclaved at 120° C. for 15 minutes, thereby preparing a solid culture medium. As plant hormones, […] (NAA), benzylaminopurine (BA), thidiazuron(TDZ), abscisic acid (ABA) and silver nitrate (AgNO3) were used.

As for `O=C(Nc1ccccc1)Nc1cnns1` [TDZ, thidiazuron], the “Number of cut piece* (cut pieces with polyblast formation × 100/cut piece)” value is listed as 100 in experiment [1] (BA 0 nM, TDZ 1 nM); 100 in experiment [1] (BA 0 nM, TDZ 1 × 10^2 nM); 100 in experiment [1] (BA 0 nM, TDZ 1 × 10^4 nM). Besides, the “Number of shoots/cut piece” value in experiment [1] (BA 0 nM, TDZ 1 nM) worked out at 1.5 ± 1.0; in experiment [1] (BA 0 nM, TDZ 1 × 10^2 nM), 2.5 ± 0.6; in experiment [1] (BA 0 nM, TDZ 1 × 10^4 nM) it was 1.5 ± 1.0. The “induction of the Ficus stipulata Thunb. (polyblast formation / redifferentiation)” value in experiment [1] was “could be induced at a high probability”. For the same compound, the “Number of cut pieces* in which polyflasts were formed at a stem apex” value in experiment [2] (BA 0 nM, TDZ 1 nM) is 4; in experiment [2] (BA 0 nM, TDZ 10^2 nM), 4; in experiment [2] (BA 0 nM, TDZ 10^4 nM), 4. Moreover, the “Number of buds formed” value is 1.5 ± 1.0 in experiment [2] (BA 0 nM, TDZ 1 nM); 2.5 ± 0.6 in experiment [2] (BA 0 nM, TDZ 10^2 nM); 1.5 ± 1.0 in experiment [2] (BA 0 nM, TDZ 10^4 nM). The redifferential state entry in experiment [2] is “good redifferential state”.
In the case of `c1ccc(CNc2ncnc3nc[nH]c23)cc1` [BA, benzyladenine], the “Number of cut piece* (cut pieces with polyblast formation × 100/cut piece)” value in experiment [1] (BA 9 nM, TDZ 0 nM) was determined as 50; in experiment [1] (BA 22 nM, TDZ 0 nM), 100; in experiment [1] (BA 36 nM, TDZ 0 nM) it was 100; in experiment [1] (BA 44 nM, TDZ 0 nM), 100. The “Number of shoots/cut piece” value stood at 1.8 ± 2.4 in experiment [1] (BA 9 nM, TDZ 0 nM); 3.5 ± 0.6 in experiment [1] (BA 22 nM, TDZ 0 nM); 2.5 ± 1.0 in experiment [1] (BA 36 nM, TDZ 0 nM); 3.8 ± 0.5 in experiment [1] (BA 44 nM, TDZ 0 nM). In addition, in experiment [1], the “induction of the Ficus stipulata Thunb. (polyblast formation / redifferentiation)” value was “could be induced at a high probability”. Also, the “Number of cut pieces* in which polyflasts were formed at a stem apex” value in experiment [2] (BA 8.9 nM, TDZ 0 nM) is listed as 2; in experiment [2] (BA 22.2 nM, TDZ 0 nM) it was 4; in experiment [2] (BA 35.5 nM, TDZ 0 nM) it was 4; in experiment [2] (BA 44.4 nM, TDZ 0 nM) it was 4. The “Number of buds formed” value in experiment [2] (BA 8.9 nM, TDZ 0 nM) amounted to 1.8 ± 2.4; in experiment [2] (BA 22.2 nM, TDZ 0 nM), 3.5 ± 0.6; in experiment [2] (BA 35.5 nM, TDZ 0 nM), 2.5 ± 1.0; in experiment [2] (BA 44.4 nM, TDZ 0 nM), 3.8 ± 0.5. Further, the redifferential state entry in experiment [2] is reported as “good redifferential state”.
